Measured values: patent publication US20060287247A1, “Halogen-substituted thienyl compounds” (priority 2001, published 2006)

Columns and labels:
S. aureus ATCC 29213 = assay: NCCLS broth microdilution MIC; format: cell-based, Staphylococcus aureus; conditions: A = S. aureus ATCC 29213
E. faecalis ATCC 29212 = assay: NCCLS broth microdilution MIC; format: cell-based, Enterococcus faecalis; conditions: B = E. faecalis ATCC 29212
B. cereus ATCC 11778 = assay: NCCLS broth microdilution MIC; format: cell-based, Bacillus cereus; conditions: C = B. cereus ATCC 11778
E. coli ATCC 25922 = assay: NCCLS broth microdilution MIC; format: cell-based; conditions: D = E. coli ATCC 25922
C. albicans ATCC 38247 = assay: NCCLS broth microdilution MIC (antifungal); format: cell-based; conditions: E = C. albicans ATCC 38247
S. pneumoniae ATCC 49619 = assay: NCCLS broth microdilution MIC; format: cell-based, Streptococcus pneumoniae; conditions: F = S. pneumoniae ATCC 49619
5′-AAAAAGACAAAAA-3′ = format: binding; conditions: DNA sequence 5′-AAAAAGACAAAAA-3′; pH 7.0, 22° C.
Description: (§1) A number of compounds according to this invention were screened for their ability to bind to three DNA sites, using DNase I footprinting. Generally, the procedure described in Dervan, WO 98/50582 (1998), was followed.
(§2) A plasmid was prepared by hybridizing two sets of 5′-phosphorylated complementary oligonucleotides, one set being
(§3) The target sites and their complements are identified in bold underline.
(§4) The resulting duplexes were ligated to the large pUC19 AvaI/SalI restriction fragment. The 3′-P32 end-labeled EcoRI/PvuII fragment was prepared by digesting the plasmid with EcoRI and PvuII with simultaneous fill-in using Sequenase v. 2.0, [alpha-P32]-deoxyadenosine-5′-triphosphate, and [alpha-P32]-thymidine-5′-triphosphate, and isolating the cloned fragment by nondenaturing gel electrophoresis. Standard methods were used for all DNA manipulations, including A and G sequencing. See, e.g., Maxam et al., Methods Enzymol., 1980, 65, 499-560; Iverson et al., Methods Enzymol., 1987, 15, 7823-7830; and Sambrook et al., 1989, Molecular Cloning, 2nd ed., Cold Spring Harbor Laboratory Press: Cold Spring Harbor, N.Y.
(§5) Quantitative DNase I footprint titration experiments were carried out as described previously (Dervan, WO 98/50582, 1998, “Dervan '582”) with the following changes. All reactions were carried out in a total volume of 400 μL, with polyamide stock solution or water added to 15,000 cpm radiolabeled restriction fragment affording final solution conditions of 10 mM Tris.HCl, 10 mM KCl, 10 mM MgCl2, 5 mM CaCl2, pH 7.0 and 0.01 nM, 0.1 nM, 1.0 nM, 10.0 nM polyamide or no polyamide for reference lanes. The polyamides were allowed to equilibrate at 22° C. for 16 hr. Footprinting reactions were initiated with addition of 10 μL of a DNase I stock solution (at the appropriate concentration to give ˜50% intact DNA) containing 1 mM DTT and allowed to proceed for 7 min at 22° C. The reactions were stopped, ethanol precipitated, resuspended in loading buffer, heat denatured, and placed on ice as described in Dervan '582. The reaction products were separated on a precast 8% polyacrylamide denaturing sequencing Castaway gel with 32 preformed wells from Stratagene in 1× TBE at 2000 V. Gels were dried according to the manufacturer's instructions and exposed to a storage phosphor screen (Molecular Dynamics). Quantitation and data analysis were carried out as described in Dervan '582.

5′-AAAAAGCAAAAA-3′ = format: binding; conditions: DNA sequence 5′-AAAAAGCAAAAA-3′; pH 7.0, 22° C.
Description: as §1, §2, §3, §4, §5

5′-AAAAAGTACAAAAA-3′ = format: binding; conditions: DNA sequence 5′-AAAAAGTACAAAAA-3′; pH 7.0, 22° C.
Description: as §1, §2, §3, §4, §5

Minimum Inhibitory Concentration (MIC) (S. aureus ATCC 29213): +++ (+++ = MIC ≦4) | Minimum Inhibitory Concentration (MIC) (E. faecalis ATCC 29212): +++ (+++ = MIC ≦4) | Minimum Inhibitory Concentration (MIC) (B. cereus ATCC 11778): +++ (+++ = MIC ≦4) | Minimum Inhibitory Concentration (MIC) (E. coli ATCC 25922): >32 µg/mL | Minimum Inhibitory Concentration (MIC) (C. albicans ATCC 38247): >32 µg/mL | Minimum Inhibitory Concentration (MIC) (S. pneumoniae ATCC 49619): +++ (+++ = MIC ≦4)
SMILES: CCN(CC)CCCNC(=O)CCNC(=O)c1cc(NC(=O)c2cc(NC(=O)CCNC(=O)c3cc(NC(=O)c4cc(NC(=O)c5cc(Br)c(Br)s5)cn4C)cn3C)cn2C)cn1C [Id-6]
Equilibrium Association Constant (Ka) (5′-AAAAAGACAAAAA-3′): 1e+10 M⁻¹ | Equilibrium Association Constant (Ka) (5′-AAAAAGCAAAAA-3′): 1e+10 M⁻¹ | Equilibrium Association Constant (Ka) (5′-AAAAAGTACAAAAA-3′): ≧1 × 10^11 M^−1
